Tests used:
[1] = system: LPAAT; experiment: LPAAT acyl-CoA substrate specificity, Mortierella microsomal membranes; type: biochemical, Mortierella alpina; conditions: for Percentage incorporation in comparison with the incorporation of oleic acid: Mortierella LPAAT, 20 nmol acyl-CoA, sn-1-oleoyl-lysophosphatidic acid, DTNB assay
Procedure: (§1) Mortierella cultures were harvested after 5 days and placed on ice. All further procedures were carried out at 4° C. The mycelium was suspended in 0.1 M sodium phosphate buffer (pH 7.2), comprising 0.33 M sucrose, 0.1% BSA (free from fatty acids), 1000 units of catalase/ml and 1 mM Pefabloc. The following steps were carried out as described under “preparations of microsomal membranes from cotyledons of maturing seeds of sunflower and linseed”.
(§2) The specificity of the LPAAT was studied in order to verify whether the enzyme has a preference for certain acyl-CoAs, in particular to determine whether the LPAAT from oil seed plants converts LCPUFA-CoAs. […] The assay comprised sn-1-oleoyl-lysophosphatidic acid (30 nmol), DTNB (50 nmol) and 20 nmol of one of the following acyl-CoAs: palmitoyl-CoA (16:0-CoA), stearoyl-CoA (18:0-CoA), oleoyl-CoA (18:1-CoA), linoleoyl-CoA (18:2-CoA), dihomo-gamma-linolenyl-CoA (20:3-CoA) or arachidonyl-CoA (20:4-CoA) in 1 ml of 0.1 M phosphate buffer, pH 7.2. […] Microsomal membranes (equivalent to 10 μg of protein in the case of Mortierella and 40 μg of protein in the case of sunflower and linseed) were added to the reaction mixture in order to start the reaction.

[2] = system: LPCAT; experiment: LPCAT acyl-CoA substrate specificity, sunflower microsomal membranes; type: biochemical; conditions: for Percentage incorporation in comparison with the incorporation of oleic acid: 20 nmol acyl-CoA, sn-1-palmitolysophosphatidylcholine, DTNB assay
Procedure: (§3) All the procedures were carried out at 4° C. The cotyledons of maturing sunflower seeds and linseed were harvested approximately 10 days after anthesis and suspended in 0.1 M sodium phosphate buffer (pH 7.2), comprising 0.33 M sucrose and 0.1% BSA (free from fatty acids). After comminution in a glass homogenizer, the homogenate was centrifuged for 30 minutes at 20 000×g. The supernatant was filtered through one layer of Miracloth and centrifuged for 90 minutes in an ultracentrifuge at 100 000×g. The pelleted microsomal membranes were washed with 0.1 M sodium phosphate buffer (pH 7.2) and resuspended in a small volume of buffer, using a glass homogenizer. The microsomal membrane preparations were either immediately processed or stored at −80° C.
(§4) LPCAT activity was determined in a continuous spectraphotometric assay in which 5,5-dithiobis-2-nitrobenzoate (DTNB) was used, and the change in absorption at 409 nm and 25° C. was monitored. The assay comprised sn-1-palmitolysophosphatidylcholine (30 nmol) as acyl acceptor, DTNB (50 nmol) and 20 nmol of one of the following acyl-CoAs: myristoyl-CoA (14:0-CoA), palmitoyl-CoA (16:0-CoA), palmitoleoyl-CoA (16:1-CoA), stearoyl-CoA (18:0-CoA), oleoyl-CoA (18:1-CoA), linoleoyl-CoA (18:2-CoA), dihomo-gamma-linolenyl-CoA (20:3-CoA) or arachidonyl-CoA (20:4-CoA) in 1 ml of 0.1 M phosphate buffer, pH 7.2. The reaction was started by addition of microsomal membrane preparation. The amount of microsomal membrane preparation added was 5 μg (Mortierella and sunflower) or 30 μg (linseed).

[3] = system: LPCAT; experiment: LPCAT acyl-CoA substrate specificity, Mortierella microsomal membranes; type: biochemical, Mortierella alpina; conditions: for Percentage incorporation in comparison with the incorporation of oleic acid: Mortierella LPCAT, 20 nmol acyl-CoA, sn-1-palmitolysophosphatidylcholine, DTNB assay
Procedure: as §1, §4

[4] = system: GPAT; experiment: GPAT acyl-CoA substrate specificity, linseed microsomal membranes; type: biochemical; conditions: for Percentage incorporation in comparison with the incorporation of oleic acid: 0.2 mM acyl-CoA, 5 mM [14C] G3P, 5 minutes
Procedure: as §3
(§5) The specificity of the GPAT was studied to verify whether the enzyme has a preference for certain acyl-CoAs, in particular to determine whether the GPAT from oil seed plants converts LCPUFA-CoAs. Microsomal membranes were incubated with 0.5 mM (Mortierella) or 0.2 mM (sunflower and linseed) of one of the following acyl-CoAs: myristoyl-CoA (14:0-CoA), palmitoyl-CoA (16:0-CoA), palmitoleoyl-CoA (16:1-CoA), stearoyl-CoA (18:0-CoA), oleoyl-CoA (18:1-CoA), linoleoyl-CoA (18:2-CoA), dihomo-gamma-linolenoyl-CoA (20:3-CoA) or arachidonyl-CoA (20:4-CoA) and 5 mM [^14C] G3P. Microsomal membranes (equivalent to 50 μg of protein in the case of sunflower and Mortierella and 150 μg of protein in the case of linseed) were added to the reaction mixture in order to start the reaction. After incubation for 5 minutes, the lipids were extracted by the method of Bligh & Dyer, and the radioactivity incorporated in complex lipids was determined.

[5] = system: LPAAT; experiment: LPAAT acyl-CoA substrate specificity, linseed microsomal membranes; type: biochemical; conditions: for Percentage incorporation in comparison with the incorporation of oleic acid: 20 nmol acyl-CoA, sn-1-oleoyl-lysophosphatidic acid, DTNB assay
Procedure: as §3, §2

[6] = system: LPCAT; experiment: LPCAT acyl-CoA substrate specificity, linseed microsomal membranes; type: biochemical; conditions: for Percentage incorporation in comparison with the incorporation of oleic acid: 20 nmol acyl-CoA, sn-1-palmitolysophosphatidylcholine, DTNB assay
Procedure: as §3, §4

[7] = system: GPAT; experiment: GPAT acyl-CoA substrate specificity, Mortierella microsomal membranes; type: biochemical, Mortierella alpina; conditions: for Percentage incorporation in comparison with the incorporation of oleic acid: Mortierella GPAT, 0.5 mM acyl-CoA, 5 mM [14C] G3P, 5 minutes
Procedure: as §1, §5

[8] = system: GPAT; experiment: GPAT acyl-CoA substrate specificity, sunflower microsomal membranes; type: biochemical; conditions: for Percentage incorporation in comparison with the incorporation of oleic acid: 0.2 mM acyl-CoA, 5 mM [14C] G3P, 5 minutes
Procedure: as §3, §5

[9] = system: LPAAT; experiment: LPAAT acyl-CoA substrate specificity, sunflower microsomal membranes; type: biochemical; conditions: for Percentage incorporation in comparison with the incorporation of oleic acid: 20 nmol acyl-CoA, sn-1-oleoyl-lysophosphatidic acid, DTNB assay
Procedure: as §3, §2

SMILES | Percentage incorporation in comparison with the incorporation of oleic acid [1] [%] | Percentage incorporation in comparison with the incorporation of oleic acid [2] [%] | Percentage incorporation in comparison with the incorporation of oleic acid [3] [%] | Percentage incorporation in comparison with the incorporation of oleic acid [4] [%] | Percentage incorporation in comparison with the incorporation of oleic acid [5] [%] | Percentage incorporation in comparison with the incorporation of oleic acid [6] [%] | Percentage incorporation in comparison with the incorporation of oleic acid [7] [%] | Percentage incorporation in comparison with the incorporation of oleic acid [8] [%] | Percentage incorporation in comparison with the incorporation of oleic acid [9] [%] | Rate of the incorporation of oleic acid ([1]; Mortierella alpina LPAAT) [nmol/min/mg protein] | Rate of the incorporation of oleic acid [2] [nmol/min/mg protein] | Rate of the incorporation of oleic acid ([3]; Mortierella alpina LPCAT) [nmol/min/mg protein] | Rate of the incorporation of oleic acid [4] [nmol/min/mg protein] | Rate of the incorporation of oleic acid [5] [nmol/min/mg protein] | LPCAT activity (in words) [6] | Rate of the incorporation of oleic acid [6] [nmol/min/mg protein] | Rate of the incorporation of oleic acid ([7]; Mortierella alpina GPAT) [nmol/min/mg protein] | Rate of the incorporation of oleic acid [8] [nmol/min/mg protein] | Rate of the incorporation of oleic acid [9] [nmol/min/mg protein] | Percentage incorporation in comparison with the incorporation of oleic acid ([2]; listed as SSA Palmitoyl-CoA) [%]
CCCCCCCCCCCCCCCCCC(=O)SCCNC(=O)CCNC(=O)[C@H](O)C(C)(C)COP(=O)(O)OP(=O)(O)OC[C@H]1O[C@@H](n2cnc3c(N)ncnc32)[C@H](O)[C@@H]1OP(=O)(O)O [Stearoyl-CoA, stearoyl-CoA] | 36 | 18 | 10 | 65 | 30 | 15 | 50 | 40 | 14 |  |  |  |  |  |  |  |  |  |  | 
CCCCCCCC/C=C\CCCCCCCC(=O)SCCNC(=O)CCNC(=O)[C@H](O)C(C)(C)COP(=O)(O)OP(=O)(O)OC[C@H]1O[C@@H](n2cnc3c(N)ncnc32)[C@H](O)[C@@H]1OP(=O)(O)O [Oleoyl-CoA, oleoyl-CoA] | 100 | 100 | 100 | 100 | 100 | 100 | 100 | 100 | 100 | 51 | 360 | 350 | 6 | 25 | converted equally efficiently | 9 | 30 | 13 | 28 | 
CCCCCCCCCCCCCCCC(=O)SCCNC(=O)CCNC(=O)[C@H](O)C(C)(C)COP(=O)(O)OP(=O)(O)OC[C@H]1O[C@@H](n2cnc3c(N)ncnc32)[C@H](O)[C@@H]1OP(=O)(O)O [Palmitoyl-CoA, palmitoyl-CoA] | 40 |  | 25 | 90 | 25 | 5 | 66 | 64 | 15 |  |  |  |  |  |  |  |  |  |  | 13
CCCCC/C=C\C/C=C\CCCCCCCC(=O)SCCNC(=O)CCNC(=O)[C@H](O)C(C)(C)COP(=O)(O)OP(=O)(O)OC[C@H]1O[C@@H](n2cnc3c(N)ncnc32)[C@H](O)[C@@H]1OP(=O)(O)O [Linoleoyl-CoA, linoleoyl-CoA] | 90 | 120 | 40 | 90 | 120 | 100 | 90 | 85 | 250 |  |  |  |  |  | converted equally efficiently |  |  |  |  | 
CCCCC/C=C\C/C=C\C/C=C\CCCCCCC(=O)SCCNC(=O)CCNC(=O)[C@H](O)C(C)(C)COP(=O)(O)OP(=O)(O)OC[C@H]1O[C@@H](n2cnc3c(N)ncnc32)[C@H](O)[C@@H]1OP(=O)(O)O [20:3-CoA, dihomo-gamma-linolenoyl-CoA] | 65 |  | 85 |  |  | 0 | 80 | 55 |  |  |  |  |  |  | no LPCAT activity was detected |  |  |  |  | 
CCCCCCCCCCCCCC(=O)SCCNC(=O)CCNC(=O)[C@H](O)C(C)(C)COP(=O)(O)OP(=O)(O)OC[C@H]1O[C@@H](n2cnc3c(N)ncnc32)[C@H](O)[C@@H]1OP(=O)(O)O [Myristoyl-CoA, myristoyl-CoA] | 55 | 1 | 0 | 100 | 30 | 0 |  | 57 | 16 |  |  |  |  |  |  |  |  |  |  | 
CCCCCC/C=C\CCCCCCCC(=O)SCCNC(=O)CCNC(=O)[C@H](O)C(C)(C)COP(=O)(O)OP(=O)(O)OC[C@H]1O[C@@H](n2cnc3c(N)ncnc32)[C@H](O)[C@@H]1OP(=O)(O)O [Palmitololeoyl-CoA, palmitoleoyl-CoA] | 70 | 90 | 60 |  | 140 | 180 |  |  | 140 |  |  |  |  |  |  |  |  |  |  | 
CCCCC/C=C\C/C=C\C/C=C\C/C=C\CCCC(=O)SCCNC(=O)CCNC(=O)[C@H](O)C(C)(C)COP(=O)(O)OP(=O)(O)OC[C@H]1O[C@@H](n2cnc3c(N)ncnc32)[C@H](O)[C@@H]1OP(=O)(O)O [Arachidonoyl-CoA, arachidonyl-CoA] | 65 | 4 | 90 | 5 | 19 | 0 | 75 | 23 | 18 |  |  |  |  |  | no LPCAT activity was detected |  |  |  |  | 
